Measured values as given in patent publication US20070224155A1, “Cleansing compositions and methods of reducing skin irritation” (ACCESS BUSINESS GROUP INTERNATIONAL, LLC, priority 2006, published 2007).

System: IL-1 alpha
Assay: IL-1 alpha assay: ELISA of IL-1α secreted by fibroblast/keratinocyte co-cultures exposed to a surfactant irritant with or without mildness agent
Format: cell-based, human
Conditions: hand dishwashing detergent; for Percent IL-1 α Reduction AVG: average of 1%, 0.1% and 0.01%
Source text: IL-1 alpha is one cytokine often released near the beginning of the inflammation cascade, which ultimately leads to a human biological response resulting in visible and/or perceptual signs of irritation. Accordingly, by reducing the initial response to an irritant, such as a surfactant, the ultimate damaging reaction can be reduced, prevented, and/or eliminated.
The procedure for conducting IL-1 alpha assays is as follows: Co-cultures of fibroblasts and keratinocytes, the primary cell types found in skin, are established using 100,000 fibroblasts and 200,000 keratinocytes per well. These types of cells are those found in the outer layers of the skin exposed to detergent during every day use. An irritant, for example the surfactant package used in a dish detergent (Example 1 below), is then applied to the coculture wells to initiate the production and secretion of pro-inflammatory cytokines by the cells. One such cytokine is human interleukin-1 alpha or IL-1α. In the body, this protein is a key mediator of the host response to infections and various inflammatory challenges. Once produced, IL-1α stimulates production of other pro-inflammatory cytokines and bioactive molecules. Together, these biological molecules send the message that something is wrong and the keratinocytes and fibroblasts need help. This is called the inflammatory response.
The amount of secreted IL-1α is directly related to the intensity of the inflammatory response. In vitro, the concentration of IL-1α secreted by the co-culture cells in response to the irritant can be measured via a precise laboratory technique known as an Enzyme Linked Immuno-Sorbent Assay or ELISA. Thus, to test botanical materials for mildness, a lessening of IL-1α secretion, the mildness agents were added with the chemical irritant. When a reduction in IL-1α expression was observed, the mildness agents were successful. Theoretically, there are several mechanisms by which this could have been achieved at the cellular level. Without wishing to be bound to a particular theory or in any way limit the scope of the appended claims or their equivalents, it is presently believed that these mechanisms may include one or more of the following: the mildness agent could block the transcription of the DNA to RNA, translation of the RNA to protein, and/or release of the IL-1α from the cells. […] The mildness agent may also have stopped the cascade after the irritant works on the cell. Whatever the mechanism, the net result is the same. There is less IL-1α released by the cells which correlates to inhibition of events in the inflammatory cascade and ultimately, less inflammation.
These were prepared using a serial dilution technique: 1.0 g botanical was mixed well with 99.0 g dish detergent to give the 1.0% formulation; next, 10.0 g of the 1.0% solution was mixed well with 90.0 g of the dish detergent to give the 0.1% formulation; finally, 10.0 g of the 0.1% solution was mixed well with 90.0 g of the dish detergent to give the 0.01% formulation.

[1] = botanical concentration 0.01% by weight
[2] = botanical concentration 0.1% by weight
[3] = botanical concentration 1% by weight

SMILES	Percent IL-1 α Reduction AVG	Percent IL-1 α Reduction [1]	Percent IL-1 α Reduction [2]	Percent IL-1 α Reduction [3]
O=C(O)c1ccccc1O.O[SiH2]O [D.S.B.C., silanediol salicylate]	12.42%	7.46%	13.07%	16.74%
N[C@@H](CCC(=O)O)C(=O)NCCc1c[nH]c2ccccc12 [GLISTIN, glutaurylamidoethyl indole]	22.63%	18.50%	31.80%	17.60%
